In ChEMBL document CHEMBL1122998, “New antihistaminic theophylline or theobromine derivatives” (1985):

Columns and labels:
[1] = system: Rattus norvegicus; assay: Percentage decrease in antiallergic activity against cutaneous reaction to histamine in rat, by oral administration at a dose of 10 mg/kg; assay type: functional
[2] = system: Rattus norvegicus; assay: Percent decrease in antiallergic activity by antigen/antibody reaction assay in rat by oral administration at a dose of 10 mg/kg; assay type: functional
[3] = system: Cavia porcellus; assay: Percent decrease in bronchodilator activity against acetylcholine-induced bronchospasm reaction in guinea pig by intraveneous administration at dose 250 ug/kg; assay type: functional
[4] = system: Cavia porcellus; assay: Percent decrease in bronchodilator activity against histamine-induced bronchospasm reaction in guinea pig by intraveneous administration at dose 4 mg/kg
[5] = system: Cavia porcellus; assay: Percentage decrease in bronchodilator activity against serotonin-induced bronchospasm reaction in guinea pig by intraveneous administration at dose 250 ug/kg; assay type: functional
[6] = system: Cavia porcellus; assay: Percent decrease in bronchodilator activity against histamine-induced bronchospasm reaction in guinea pig by intraveneous administration at dose 250 ug/kg; assay type: functional
[7] = system: Cavia porcellus; assay: Percent decrease in bronchodilator activity against histamine-induced bronchospasm reaction in guinea pig by intraveneous administration at dose 10.5 ug/kg
[8] = system: Rattus norvegicus; assay: Percent protection against Passive Cutaneous Anaphylaxis in rat after 2.0 hr at dose 100 mg/kg by peroral administration through antigen or antibody reaction; assay type: functional; details: route oral
[9] = system: Rattus norvegicus; assay: Percent protection against Passive Cutaneous Anaphylaxis in rat after 3.0 hh at dose 100 mg/kg by peroral administration through exogenous histamine reaction; assay type: functional; details: route oral
[10] = system: Rattus norvegicus; assay: Percent protection against Passive Cutaneous Anaphylaxis in rat after 0.25 hr at dose 100 mg/kg by peroral administration through exogenous histamine reaction; assay type: functional; details: route oral
[11] = system: Rattus norvegicus; assay: Percent protection against Passive Cutaneous Anaphylaxis in rat after 4.0h at dose 100 mg/kg by peroral administration through antigen or antibody reaction; assay type: functional; details: route oral
[12] = system: Rattus norvegicus; assay: Percent protection against Passive Cutaneous Anaphylaxis in rat after 4.0h at dose 100 mg/kg by peroral administration through exogenous histamine reaction; assay type: functional; details: route oral
[13] = system: Rattus norvegicus; assay: Percent protection against Passive Cutaneous Anaphylaxis in rat after 1.0 hr at dose 100 mg/kg by peroral administration through exogenous histamine reaction; assay type: functional; details: route oral
[14] = system: Rattus norvegicus; assay: Percent protection against Passive Cutaneous Anaphylaxis in rat after 0.25 hr at dose 100 mg/kg by peroral administration through antigen or antibody reaction; assay type: functional; details: route oral
[15] = system: Rattus norvegicus; assay: Percent protection against Passive Cutaneous Anaphylaxis in rat after 2.0 hr at dose 100 mg/kg by peroral administration through exogenous histamine reaction; assay type: functional; details: route oral
[16] = system: Rattus norvegicus; assay: Percent protection against Passive Cutaneous Anaphylaxis in rat after 1.0 hr at dose 100 mg/kg by peroral administration through antigen or antibody reaction; assay type: functional; details: route oral
[17] = system: Rattus norvegicus; assay: Percent protection against Passive Cutaneous Anaphylaxis in rat after 3.0 hh at dose 100 mg/kg by peroral administration through antigen or antibody reaction; assay type: functional; details: route oral

Q: How did the Decrease [1] turn out when `Cn1c(=O)c2nc[nH]c2n(C)c1=O.O` [THEOPHYLLINE] was run?
A: 15%

Q: And the Decrease [2]?
A: 45%

Q: And the Decrease [3]?
A: 72%

Q: What about the Decrease [4] of the same molecule?
A: 56%

Q: What about the Decrease [5] of the same molecule?
A: 59%

Q: For `CC(=O)OC(CN1CCN(CCCSc2ccccc2)CC1)Cn1cnc2c1c(=O)n(C)c(=O)n2C` (stereo not given), which Decrease [1] is on record?
A: 62%

Q: And the Decrease [2]?
A: 54%

Q: What about the Decrease [3] of the same molecule?
A: 17%

Q: And the Decrease [6]?
A: 50%

Q: And the Decrease [5]?
A: 29%

Q: For `Cn1c(=O)c2c(ncn2CCCN2CCN(CCCSc3ccccc3)CC2)n(C)c1=O`, which Decrease [1] is on record?
A: 62%

Q: And the Decrease [7]?
A: 95%

Q: What about the Protection [8] of the same molecule?
A: 45%

Q: And the Protection [9]?
A: 0%

Q: And the Protection [10]?
A: 46%

Q: And the Protection [11]?
A: 0%

Q: And the Decrease [2]?
A: 60%

Q: And the Protection [12]?
A: 0%

Q: What about the Protection [13] of the same molecule?
A: 23%

Q: And the Protection [14]?
A: 98%

Q: And the Decrease [3]?
A: 23%

Q: And the Protection [15]?
A: 28%

Q: What about the Protection [16] of the same molecule?
A: 45%

Q: And the Decrease [5]?
A: 69%

Q: And the Protection [17]?
A: 0%

Q: For `Cn1cnc2c1c(=O)n(CCCN1CCN(CCCSc3ccccc3)CC1)c(=O)n2C`, which Decrease [1] is on record?
A: 31.5%

Q: And the Decrease [7]?
A: 56%

Q: And the Decrease [2]?
A: 15%

Q: What about the Decrease [3] of the same molecule?
A: 10%

Q: And the Decrease [5]?
A: 25%

Q: Which Decrease [1] does the source give for `Cn1c(=O)c2c(ncn2CCCN2CCN(CC(O)CSc3ccccc3)CC2)n(C)c1=O` (stereo not given) here?
A: 0%

Q: What about the Decrease [7] of the same molecule?
A: 88%

Q: What about the Decrease [2] of the same molecule?
A: 0%

Q: What about the Decrease [3] of the same molecule?
A: 0%

Q: And the Decrease [5]?
A: 0%

Q: Which results are given for `Cc1ccc(SCCCN2CCN(CCCn3c(=O)c4c(ncn4C)n(C)c3=O)CC2)cc1`?
A: Decrease [1]: 6.5%; Decrease [7]: 13%; Decrease [2]: 0%; Decrease [3]: 24%; Decrease [5]: 6%

Q: With `Cn1c(=O)c2c(ncn2CC(O)CN2CCN(CCCSc3ccccc3)CC2)n(C)c1=O` (stereo not given) [TAZIFYLLINE] as the molecule, how does the Decrease [1] read?
A: 65%

Q: What about the Decrease [7] of the same molecule?
A: 76%

Q: And the Protection [8]?
A: 82%

Q: What about the Protection [9] of the same molecule?
A: 52%

Q: What about the Protection [10] of the same molecule?
A: 52%

Q: What about the Protection [11] of the same molecule?
A: 44%

Q: What about the Decrease [2] of the same molecule?
A: 54%

Q: What about the Protection [12] of the same molecule?
A: 39%

Q: And the Protection [13]?
A: 49%

Q: What about the Protection [14] of the same molecule?
A: 100%

Q: What about the Decrease [3] of the same molecule?
A: 23%

Q: And the Protection [15]?
A: 33%

Q: And the Protection [16]?
A: 98%

Q: What about the Decrease [5] of the same molecule?
A: 26%

Q: And the Protection [17]?
A: 74%
